Experimental data taken from US6818396B1, “Process for determination of the activity of a substance using an in vitro functional test” (priority 2000, dated 2004).

Key:
TEM-1 beta-lactamase = biological target: T1, TEM-1 beta-lactamase (Escherichia coli, UniProt P62593); assay type: biochemical; conditions: for reduction of the TEM-1 activity: inhibitor 21.5 μM final
T1 construct: made in house
Procedure: A screening of new TEM-1 ? -lactamase inhibitors was carried out by the process of the invention. This enzyme was expressed in vitro as described by Zubay by using 300 μg of mRNA in a final translation volume of 5 ml. […] Then 3 μl of the translation mixture were added in each microtitration plaque well and the mixture was incubated 3 minutes at 25° C. The volume was then completed to 58 μl with a revelation solution (final concentration: NaP 40 mM pH 7.0, 100 μg/ml of nitrocephine and 0.25 mM DNSO). The reaction was followed by spectrophotometry at 486 nm. Three controls were carried out: one without translation extract (therefore without enzyme), one with the substrate alone, and one without any potential inhibitor.

native TEM-1 enzyme = biological target: T2, native TEM-1 enzyme (Escherichia coli, UniProt P62593); experiment: Characterization of inhibitor on native TEM-1 enzyme expressed in vitro, nitrocephine test; assay type: biochemical; conditions: read-out: inhibition of native TEM-1 enzyme
T2 construct: made in house
Procedure: For this 5 μl of a translation mixture expressing either the native enzyme or one of the two mutants were separately incubated at 25° C. for 3 minutes in a final volume of 500 μl of buffer I (final concentration: NaP 50 mM pH 7.0, 1.5 μM potential inhibitor #1). Then 100 μg/ml of nitrocephine and 0.25 mM final of DMSO were added, and the reaction was followed by spectrophotometry at 486 nm. The obtained results were expressed in maximum activity percentage measured on the enzyme in the absence of inhibitor.

T1 sequence (P62593 24-286 limits assumed): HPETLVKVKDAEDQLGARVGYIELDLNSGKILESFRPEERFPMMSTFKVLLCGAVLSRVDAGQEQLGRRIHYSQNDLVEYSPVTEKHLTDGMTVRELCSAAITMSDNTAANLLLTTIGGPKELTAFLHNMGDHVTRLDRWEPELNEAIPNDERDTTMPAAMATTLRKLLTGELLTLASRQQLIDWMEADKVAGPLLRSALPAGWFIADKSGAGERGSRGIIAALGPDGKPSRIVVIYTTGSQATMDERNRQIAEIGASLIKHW
T2 sequence (P62593 24-286 limits assumed): as above

SMILES | reduction of the TEM-1 activity versus control without inhibitor (TEM-1 beta-lactamase; inhibitor 0.4 μM final, 3 minutes at 25° C. preincubation) [%] | reduction of the TEM-1 activity (TEM-1 beta-lactamase) [%] | inhibition at 1.5 µM (native TEM-1 enzyme) [%]
O=C(O)[C@H]1/C(=C/CO)O[C@@H]2CC(=O)N21 [inhibitor #1, clavulanic acid] | 52 | 80 | 87
CC1(C)[C@H](C(=O)O)N2C(=O)C[C@H]2S1(=O)=O [inhibitor #2, sulbactam] | – | 73 | –
